Results on one compound are retold here after patent publication US20230242936A1, “DUAL PROMOTER SYSTEMS” (Seattle Children's Hospital (dba Seattle Children's …, priority 2020, published 2023).

The subject of this experiment is CA-STAT5aER. The experiment can be described thus: Logic gate system with CA-STAT5aER payload, target reporter gene expression. It counts as cell-based. To be noted: host cells co-cultured with CD19+ cells and treated with tamoxifen.

Protocol: A logic gate system similar to the system depicted in FIG. 9 and FIG. 10 are examined. Dual promoter nucleic acids are prepared and introduced into host cells. The nucleic acids include an inducible iSynPro promoter and either a constitutively activated signal transducer and activator of transcription 5a (CA-STAT5a) protein (FIG. 9), a fusion protein of CA-STAT5a and of an estrogen receptor (CA-STAT5aER) (FIG. 10), or an alternative fusion protein of CA-STAT5a and of an estrogen receptor (CA-STAT5bER). Host cells are stimulated with Raji cells (CD19+), or PMA/ionomycin and are analyzed by FACS analysis for GFP and EGFRt expression.

For `CC/C(=C(\c1ccccc1)c1ccc(OCCN(C)C)cc1)c1ccccc1` [tamoxifen, 2-(4((1Z)-1,2-diphenyl-1-butenyl)phenoxy)-N,N-dimethyl-ethanamine], the “target reporter gene expression” value was “express target reporter gene”.
